Measured values reported in US20170280722A1, “COMPOSITIONS AND METHODS FOR CONTROL OF SAND FLIES AND OTHER BLOOD SUCKING INSECTS” (GENESIS LABORATORIES, INC., priority 2010, published 2017).
Several values for one entry are separate records, joined by “and”; a condition that tells them apart may be missing. Equal entries are not always repeated. Entries after “also recorded” stand apart in the source; their conditions may differ.

What was measured:
Type in all cases: in vivo
[1] = system: P. argentipes 1st instar larvae; assay: Larval bioassay with feces of insecticide treated R. rattus (feed through)
Experimental: In the first study, a feed through study comparing diflubenzuron, fipronil, ivermectin, and eprinomectin was conducted on rats (Rattus rattus). Fecal samples were collected after three (3) consecutive days of administration of the trial products. The efficacy of the drugs administered during the blind study underwent testing in larval bioassays with P. argentipes 1st instar larvae. Commercially available chicken feed was mixed with the appropriate concentrations of each insecticide compound and used as is in the trial.
Twelve (12) locally purchased rats (Rattus rattus) of mixed sex were utilized in a small study testing the efficacy of four feed through insecticides. Five treatment groups of two rats each were randomly identified and fed diets consisting of locally available chicken feed treated with one of the following compounds: diflubenzuron (0.048%), fipronil (0.015%), ivermectin (0.025%), and eprinomectin (0.01% and 0.025%). Two rats served as control and were fed only chicken feed. Rats were fed 20 g of their assigned diet daily at the same time, with daily consumption and spillage calculated for a period of three (3) days. Sand fly analyses were conducted simultaneously.
[…] Collected feces were dried at approximately 40° C. in an oven then ground into a fine powder utilizing a pestle and mortar and frozen at −20° C. until larval bioassays were initiated.
Larval bioassay pots were prepared using 48 mm, 100 g round Dibbi jars. Dishes were prepared by burning several small holes into the bottom of the dish with a soldering iron and filling them with a small layer of plaster (¼ to ½ inch depth). Approximately 15-20 holes were punctured into the lids using 24 gauge needles. For simpler mortality counting, pots were quartered and each quadrant numbered using an ultra fine black Sharpie.
For each individual post-treatment bioassays, thirteen (13) dishes were loaded with 10 day old 1st instar P. argentipes larvae; twelve (12) pots were provided with approximately 0.005 g of the treated feces, with two sample pots per treated bandicoot rat, and one overall control sample fed only standard larval diet. See Table 1 for sample/treatment correlations. Larvae were loaded into bioassay pots and provided with their designated treatment sample. Mortality counts of larvae were conducted every 24 hours post-treatment until 100% mortality, or pupation, was reached.

[2] = system: adult sand flies (P. argentipes); assay: Adult sand fly bioassay on cattle given oral fipronil
Experimental: (§1) The test substance was given to the cattle orally as a single application. The oral treatment was by hand. Because the oral treatment was delivered in capsule form the dosage was very precise.
(§2) The four dose levels of fipronil for the treatment groups used in this study were as follows: 0.5, 1.0, 2.0 and 4.0 mg/kg. These were weighed with an analytical balance to the nearest 0.01 g and presented in gelatin capsules.
A breeding colony of P. argentipes was established during 2009 and is situated in Patna. The colony contains an average of 10,000 sand flies. Adults and larvae are used routinely for studies and are maintained under controlled temperature and humidity conditions.
Adult sand flies used in this study were transferred to a mud plastered hut built next to the cattle shed. This was to acclimate lab-ready sand flies to natural environmental conditions in which the study was to be conducted. The sand flies were kept in 0.4 m^3 cloth mesh enclosures.
Adult sand fly bioassays were conducted on days 1, 3, 5, 7, 14, 21, and 28 after oral administration of fipronil. […] Sand flies were counted and placed in a sand fly feeding capsule (10 cm diameter×2 cm deep). […]
Two sand fly feeding capsules were used per cow. […] Sand flies were allowed to feed for 60 minutes and were monitored closely throughout the feeding period. […]

[3] = system: larval P. argentipes sand flies; assay: Larval bioassay with feces of cattle given a single oral dose of fipronil; details: for Days after dosing to attain 100% mortality in sand flies: cattle
Experimental: as §1, §2
Collection of feces was performed at pre-dosing (day 0) and days 1, 3, 5, 7, 14, 21, and 28 following administration. Feces were sampled using arm length veterinarian sterile glove and about 50 g of feces was placed into individually label plastic jars. Samples were stored in a −20° C. freezer.
Larval bioassay jars were prepared using 48 mm, 100 g round Dibbi jars (Pearlpet, Pearl Polymers LTD., New Delhi, India). Jars were prepared by burning three small holes into the bottom of the container with a soldering iron. A thin layer (approximately 5 mm) of plaster of Paris was cast on the bottom and wetted to ensure humidity and softening of the test diet. To simplify mortality counts, the plaster was quartered, and each quadrant numbered one through four, using an ultra fine black marker. The lids of the jars were punctured with 15-20 small holes using a heated 24-gauge hypodermic needle.
Each bioassay jar was loaded with ten one to two day old first instar P. argentipes larvae. Approximately 5 mg treated feces were sprinkled evenly over the plaster. Larval bioassay samples were maintained in a controlled environment at approximately 24° C. with relative humidity maintained at approximately 80% through daily moistening of paper towels underneath the jars. Any observed mold or mites were removed during each day's observation. Each bioassay group included one control jar with larvae provided standard larval food consisting of rabbit feed, rabbit pellets, and dried chicken blood which were mixed, dried, composted, and crushed. Mortality counts of larvae were conducted every 24 hours post-exposure until 100% mortality or pupation was observed. Larvae were considered dead if no physical response was observed within 15 seconds of light stimulation with a blunt probe.

[4] = feces of R. rattus day-1 post treatment, 150 ppm

N#Cc1nn(-c2c(Cl)cc(C(F)(F)F)cc2Cl)c(N)c1[S+]([O-])C(F)(F)F (centres unmarked) [fipronil]
Mean ± SEM survival (days) of P. arg larvae post-exposure [1, 4]: 2.25 ± 0.10 days
P. argentipes larvae mortality (%) [1, 4]: 100%
Day of observation by which 100% larval mortality was reached ([1]; feces of R. rattus fed 0.015% in feed): ≤ 3 days
Time to paralysis of larvae after exposure ([1]; larvae exposed to feces of fipronil-treated animals): ≤ 24 h
Speed of mortality and duration of effectiveness compared with the other compounds tested ([1]; larval P. argentipes, rodent feed through trials): quickest mortality and longest lasting effectiveness of all of the compounds tested; also recorded: quickest knockdown and longest lasting efficacy of all of the insecticides examined
Level of control of adult sand flies as a systemic ([2]; cattle, oral, without having an impact on milk residues): high levels of control were not attainable
Adult sand fly mortality versus dose level ([2]; days 14 and 21 post-treatment, one hour exposure to cattle, 0.5-4.0 mg/kg): mortality increased with dose level
Larval mortality ([3]; all dose levels (0.5-4.0 mg/kg), over the 21-day study): 100%
Day by which 100% sand fly mortality was attained ([3]; cattle feces of day 3 post-treatment, dose level not stated): ≤ 4 days
Days after dosing to attain 100% mortality in sand flies ([3]; single oral dose 0.5 mg/kg, feces of day 1 after administration): 5.5 days
Days after dosing to attain 100% mortality in sand flies ([3]; single oral dose 0.5 mg/kg, feces of day 3 after administration): 6.0 days
Days after dosing to attain 100% mortality in sand flies ([3]; single oral dose 0.5 mg/kg, feces of day 5 after administration): 9.5 days
Days after dosing to attain 100% mortality in sand flies ([3]; single oral dose 0.5 mg/kg, feces of day 14 after administration): 17 days
Days after dosing to attain 100% mortality in sand flies ([3]; single oral dose 0.5 mg/kg, feces of day 21 after administration): 15.5 days
Days after dosing to attain 100% mortality in sand flies ([3]; single oral dose 1.0 mg/kg, feces of day 1 after administration): 4.5 days
Days after dosing to attain 100% mortality in sand flies ([3]; single oral dose 1.0 mg/kg, feces of day 3 after administration): 4.0 days
Days after dosing to attain 100% mortality in sand flies ([3]; single oral dose 1.0 mg/kg, feces of day 5 after administration): 9.0 days
Days after dosing to attain 100% mortality in sand flies ([3]; single oral dose 1.0 mg/kg, feces of day 14 after administration): 20 days
Days after dosing to attain 100% mortality in sand flies ([3]; single oral dose 1.0 mg/kg, feces of day 21 after administration): 16.5 days
Days after dosing to attain 100% mortality in sand flies ([3]; single oral dose 2.0 mg/kg, feces of day 1 after administration): 4.0 days
Days after dosing to attain 100% mortality in sand flies ([3]; single oral dose 2.0 mg/kg, feces of day 3 after administration): 4.0 days
Days after dosing to attain 100% mortality in sand flies ([3]; single oral dose 2.0 mg/kg, feces of day 5 after administration): 7.0 days
Days after dosing to attain 100% mortality in sand flies ([3]; single oral dose 2.0 mg/kg, feces of day 14 after administration): 10 days
Days after dosing to attain 100% mortality in sand flies ([3]; single oral dose 2.0 mg/kg, feces of day 21 after administration, 2 mg/kg): 12 days and 12.0 days
Days after dosing to attain 100% mortality in sand flies ([3]; single oral dose 4.0 mg/kg, feces of day 1 after administration): 4.0 days
Days after dosing to attain 100% mortality in sand flies ([3]; single oral dose 4.0 mg/kg, feces of day 3 after administration): 4.0 days
Days after dosing to attain 100% mortality in sand flies ([3]; single oral dose 4.0 mg/kg, feces of day 5 after administration): 6.5 days
Days after dosing to attain 100% mortality in sand flies ([3]; single oral dose 4.0 mg/kg, feces of day 14 after administration): 11 days
Days after dosing to attain 100% mortality in sand flies ([3]; single oral dose 4.0 mg/kg, feces of day 21 after administration, 4 mg/kg): 10 days and 10.0 days
